≈ marks a conversion by molar mass, not a printed value.
Columns and labels:
[1] = tested on: Apis mellifera; conditions: acute; duration: 48 hours; oral; unspecified; mortality
[2] = tested on: Colinus virginianus; conditions: for LC50: diet
[3] = tested on: Cyprinus carpio; conditions: chronic/long-term; duration: 21 days; growth
[4] = tested on: Daphnia magna; conditions: chronic/long-term; duration: 17 days; reproduction
[5] = tested on: Oncorhynchus mykiss; conditions: acute; duration: 96 hours; mortality
[6] = tested on: Poecilus cupreus; conditions: not reported; morphology
[7] = tested on: Rattus norvegicus; conditions: for NOAEL: histopathology: nonneoplastic
[8] = tested on: Tagia sp.
[9] = tested on: Anas platyrhynchos; conditions: acute; oral; unspecified; mortality

For `CC1=C(C(=O)Nc2ccccc2)SCCO1` [Carboxin], the LD50 [1] was greater than 100 µg/piece, the LC50 ([2]; acute, oral, mortality) was greater than 985 mg/kg-day and the LD50 ([2]; acute, oral, mortality) was greater than 2150 mg/kg-day. The NOEC ([2]; reproduction developmental) was 83 mg/kg-day, the NOEC [3] was 0.32 mg/L and the NOEC [4] was 0.32 mg/L. For the same molecule, the LC50 [5] was 2.3 µg/mL (≈ 9.77 µM), the LEL [6] was 776 mg/kg and the LD50 ([7]; acute, oral, mortality) was 2590 mg/kg-day. It also gave an NOAEL ([7]; chronic, duration: 2 years, M) of 0.82 mg/kg-day, an NOEL ([7]; reproduction developmental, reproduction) of 20 mg/kg-day and an NOAEL ([7]; subchronic, duration: 90 days, oral) of 5.5 mg/kg-day. The LC50 ([8]; acute, duration: 14 days, mortality) was greater than 500 mg/kg and the NOEC ([8]; chronic/long-term, duration: 56 days) was 100 mg/kg.

With `CC1=C(C(=O)Nc2ccccc2)S(=O)(=O)CCO1` [Oxycarboxin] the LD50 [9] was 1250 mg/kg-day and the LC50 ([2]; acute, oral, mortality) was greater than 2200 mg/kg-day.
